Source: ChEMBL document CHEMBL1201862, “PubChem BioAssay data set” (2004)
The source made the active and inactive calls.

Assays:
Leucine aminopeptidase = biological target: T1, Leucine aminopeptidase (Plasmodium falciparum 3D7, UniProt Q8IL11); test: P. falciparum M17LAP inhibitors, primary screen, biochemical, fluorogenic H-Leu-NHMec substrate, 1536-well (AID 1619); assay type: functional
T1 sequence (Q8IL11 whole entry): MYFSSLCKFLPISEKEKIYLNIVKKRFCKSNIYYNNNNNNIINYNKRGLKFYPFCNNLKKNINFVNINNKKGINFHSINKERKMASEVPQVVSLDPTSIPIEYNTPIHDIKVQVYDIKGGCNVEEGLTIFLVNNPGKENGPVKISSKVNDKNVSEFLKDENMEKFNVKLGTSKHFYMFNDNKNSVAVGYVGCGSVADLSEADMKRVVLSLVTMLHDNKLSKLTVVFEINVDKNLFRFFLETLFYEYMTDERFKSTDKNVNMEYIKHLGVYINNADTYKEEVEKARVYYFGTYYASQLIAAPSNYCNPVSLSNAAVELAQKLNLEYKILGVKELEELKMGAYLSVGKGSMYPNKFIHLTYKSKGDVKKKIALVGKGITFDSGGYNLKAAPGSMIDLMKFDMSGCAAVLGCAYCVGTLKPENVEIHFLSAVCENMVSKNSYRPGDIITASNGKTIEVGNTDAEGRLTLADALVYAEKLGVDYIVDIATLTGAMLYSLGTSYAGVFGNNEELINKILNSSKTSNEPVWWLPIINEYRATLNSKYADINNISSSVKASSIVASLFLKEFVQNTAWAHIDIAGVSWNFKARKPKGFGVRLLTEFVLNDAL

NS3 = NS3 (Hepatitis C virus, UniProt A3EZJ3); test: PubChem AID 2173; parameters: species or system Hepacivirus hominis
[1] = inhibitors of firefly luciferase expression or activity, dose response, H4 neuroglioma cells, luminescence (AID 1990); assay type: functional, cell-based
[2] = luciferase reporter signal reduction – luminescence, H4-C neuroglioblastoma cells, dose response (AID 2458); assay type: functional, cell-based;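 further: H4 neuroglioblastoma cells stably carrying a luciferase reporter gene fusion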
cells [3] = assay type: functional, cell-based
[4] = Luminescence Cell-Based Dose Response HTS to Identify Inhibitors of 5'UTR Stem-Loop Driven Prion Protein mRNA Translation in H4 Neuroglioblastoma Cells. [Related pubchem assays: 1827 (Project Summary), 1813 (Primary HTS)]; assay type: functional
[5] = inhibitors of SNCA 5'UTR-driven reporter translation, confirmation, H4 neuroglioma cells, luminescence (AID 1988); assay type: functional, cell-based
[6] = inhibitors of SNCA 5'UTR-driven translation, confirmation, luminescence, H4 neuroglioblastoma cells, dose confirmation (AID 2454); assay type: functional, cell-based;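 further: H4 neuroglioblastoma cells carrying an alpha-synuclein 5'UTR luciferase reporter; potency for inhibition of the luciferase signal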
[7] = biological target: T2, Short transient receptor potential channel 4 (Mus musculus, UniProt Q9QUQ5); test: mouse TRPC4 channel inhibitors, dose response, cell-based, HEK293 TRPC4/mu-opioid, Fluo-4 calcium (AID 434942); assay type: functional;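 further: potency of inhibitors blocking the TRPC4 calcium response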
T2 sequence (Q9QUQ5 whole entry): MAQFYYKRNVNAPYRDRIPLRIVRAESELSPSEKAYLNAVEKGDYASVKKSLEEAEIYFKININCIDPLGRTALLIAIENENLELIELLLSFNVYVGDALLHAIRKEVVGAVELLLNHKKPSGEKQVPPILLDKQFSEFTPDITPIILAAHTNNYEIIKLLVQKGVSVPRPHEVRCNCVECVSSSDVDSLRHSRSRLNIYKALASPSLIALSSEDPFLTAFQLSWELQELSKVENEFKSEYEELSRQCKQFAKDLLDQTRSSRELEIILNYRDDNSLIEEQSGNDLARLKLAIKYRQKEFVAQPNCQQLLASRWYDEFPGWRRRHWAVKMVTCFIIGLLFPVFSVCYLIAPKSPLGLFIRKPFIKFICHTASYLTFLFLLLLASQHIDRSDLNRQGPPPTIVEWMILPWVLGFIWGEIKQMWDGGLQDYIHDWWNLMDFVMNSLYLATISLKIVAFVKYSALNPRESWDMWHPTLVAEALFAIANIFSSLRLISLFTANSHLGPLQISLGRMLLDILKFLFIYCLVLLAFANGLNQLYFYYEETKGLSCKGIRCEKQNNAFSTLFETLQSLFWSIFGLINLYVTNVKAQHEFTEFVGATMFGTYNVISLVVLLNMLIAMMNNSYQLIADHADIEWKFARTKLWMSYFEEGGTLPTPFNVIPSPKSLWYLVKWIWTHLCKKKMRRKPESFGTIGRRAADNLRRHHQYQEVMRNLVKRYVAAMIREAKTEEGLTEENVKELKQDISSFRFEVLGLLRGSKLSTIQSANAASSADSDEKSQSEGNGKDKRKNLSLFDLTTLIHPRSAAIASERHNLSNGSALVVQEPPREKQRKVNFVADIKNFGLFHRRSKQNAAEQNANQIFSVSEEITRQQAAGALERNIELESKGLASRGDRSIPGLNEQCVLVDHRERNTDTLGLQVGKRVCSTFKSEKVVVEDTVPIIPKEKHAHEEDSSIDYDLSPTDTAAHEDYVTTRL

BJ [8] = test: cytotoxicity toward BJ-TERT fibroblasts, dose response, cell-based, RAS-independent, luminescence (AID 1933); assay type: functional; conditions: Homo sapiens
BJ [9] = test: cells; assay type: functional, cell-based; conditions: Homo sapiens
BJ [10] = test: cytotoxicity toward BJ-TERT-LT-ST fibroblasts, dose response, cell-based, RAS-independent, luminescence (AID 1935); assay type: functional; conditions: Homo sapiens;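 further: BJ fibroblasts immortalized with TERT plus LT and ST oncogenes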
[11] = cytotoxicity toward DRD oncogenic fibroblasts, dose response, cell-based, non-viral oncogenic, luminescence (AID 1934); assay type: functional; conditions: Homo sapiens
[12] = cytotoxicity in HEK-293T cells, dose response, cytotoxicity control for TCR NF-kB inhibitor project, luminescence, T-cell screen hits (AID 489026); assay type: functional, cell-based;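 further: cells exposed to compound about 14 hours before the viability readout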
cells [13] = assay type: functional, cell-based; remark: listed apart in the source
[14] = biological target: T3, Nuclear receptor subfamily 0 group B member 1 (Homo sapiens, UniProt P51843); assay type: functional, cell-based;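 further: HEK293T cells transfected with SF-1 and DAX-1 plus StAR promoter luciferase reporter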
T3 sequence (P51843 whole entry): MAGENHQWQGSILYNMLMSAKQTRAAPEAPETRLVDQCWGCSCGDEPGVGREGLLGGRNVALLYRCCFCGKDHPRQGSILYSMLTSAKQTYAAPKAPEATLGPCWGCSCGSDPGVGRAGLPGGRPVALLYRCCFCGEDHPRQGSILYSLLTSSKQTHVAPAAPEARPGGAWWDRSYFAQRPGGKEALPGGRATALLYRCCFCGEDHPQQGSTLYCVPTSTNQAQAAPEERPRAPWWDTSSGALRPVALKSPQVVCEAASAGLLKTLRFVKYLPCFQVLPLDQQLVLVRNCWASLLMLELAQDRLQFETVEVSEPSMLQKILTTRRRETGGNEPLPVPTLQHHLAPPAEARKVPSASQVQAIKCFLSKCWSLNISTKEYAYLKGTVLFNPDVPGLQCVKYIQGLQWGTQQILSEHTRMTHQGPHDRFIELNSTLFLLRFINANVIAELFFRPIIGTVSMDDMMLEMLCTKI

Paired box protein Pax-8 = Paired box protein Pax-8 (Homo sapiens, UniProt Q06710); test: inhibitors of PAX8-driven TPO luciferase reporter, dose response, RMG-I cells, cherry-pick (AID 687027); assay type: functional, cell-based;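 further: luciferase reporter driven by Pax8 target thyroperoxidase promoter measured by SteadyGlo luminescence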
[15] = biological target: Luciferin 4-monooxygenase (Photinus pyralis, UniProt P08659); test: Counter Screen for Luciferase-based Assay Positives. [Related pubchem assays: 620, 618, 411 ]
[16] = biological target: T4, Microphthalmia-associated transcription factor (Homo sapiens, UniProt O75030); test: TRPM1 promoter luciferase signal decrease, dose response, MITF inhibitor project, cell-based, SK-MEL-5, cherry-picked, set 3 (AID 493073); assay type: functional
T4 sequence (O75030 whole entry): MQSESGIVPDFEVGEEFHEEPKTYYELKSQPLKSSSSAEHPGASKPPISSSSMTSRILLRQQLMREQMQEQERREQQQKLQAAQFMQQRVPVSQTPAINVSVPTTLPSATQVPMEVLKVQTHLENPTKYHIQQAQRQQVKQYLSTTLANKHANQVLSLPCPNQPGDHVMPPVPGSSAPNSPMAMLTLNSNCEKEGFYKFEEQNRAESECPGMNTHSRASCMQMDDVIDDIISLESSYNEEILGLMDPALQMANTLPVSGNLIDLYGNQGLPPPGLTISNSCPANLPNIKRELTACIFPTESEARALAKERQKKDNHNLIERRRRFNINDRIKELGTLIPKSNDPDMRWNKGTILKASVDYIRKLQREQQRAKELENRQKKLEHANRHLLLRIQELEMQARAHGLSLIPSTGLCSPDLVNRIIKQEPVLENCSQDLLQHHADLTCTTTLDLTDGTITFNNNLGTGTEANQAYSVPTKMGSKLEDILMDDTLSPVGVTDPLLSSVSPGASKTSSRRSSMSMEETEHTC

[17] = HEp-2 cell cytotoxicity, dose response, cytotoxicity control for RSV inhibitor project, HTS (AID 2410); assay type: functional; conditions: human respiratory syncytial virus
cells [18] = test: cells
HT-1080 = test: cytotoxicity in HT1080 fibrosarcoma cells, cell-based, fluorescence readout (AID 620); assay type: functional; conditions: Homo sapiens
[19] = cytotoxicity in HEK-293T cells, dose response, cytotoxicity control for BCR NF-kB inhibitor project, luminescence, B-cell screen hits (AID 489021); assay type: functional, cell-based;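 further: HEK-293T cells carrying an NF-kB luciferase reporter; cells exposed to compound for about 14 hours before viability readout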
[20] = inhibitors of HIV Env-driven cell fusion, dose response, cherry-pick (AID 652057); assay type: functional, cell-based
[21] = ZM109 Env clade C HIV-1 fusion inhibitors, dose response, HeLa effector, CEM target cells, luciferase, cherry-pick (AID 652058); assay type: functional, cell-based
[22] = off-target signal loss in HeLa-CEM21 co-culture – HeLa F-luc CTL cells, cherry-picked, counter-screen for HIV-1 Env fusion inhibitor project, dose response (AID 652040); assay type: functional, cell-based;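 further: potency for signal decrease marking cytotoxic or nonspecific inhibition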
[23] = inhibitors of clade B AD8 Env fusion, dose response, cell-based, cherry-pick (AID 652062); assay type: functional;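 further: luciferase signal from cell-cell fusion driven by HIV-1 clade B AD8 Env; potency is for inhibitors of fusion seen as a drop in luminescence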
Bcl-2-like protein 10 = Bcl-2-like protein 10 (Homo sapiens, UniProt Q9HD36); test: displacers of TR3 peptide from Bcl-B, primary screen, selectivity assay for Bfl-1 inhibitor project, biochemical, fluorescence polarization, FITC-TR3 peptide (AID 748);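 further: fluorescence polarization from a fluorescein-labelled TR3 peptide binding purified Bcl-B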
Large T antigen = Large T antigen (Simian virus 40, UniProt P03070); assay type: functional, Betapolyomavirus macacae;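 further: Confirmatory-stage PubChem screen for compounds that inhibit SV40 T antigen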
[24] = biological target: T5, Long-chain-fatty-acid--AMP ligase FadD28 (Mycobacterium tuberculosis, UniProt P9WQ59); test: Fluorescence polarization aasay to screen for inhibitors that compete for the binding of FadD28 to a bisubstrate Measured in Biochemical System Using Plate Reader - 2147-01_Inhibitor_Dose_CherryPick_Activity.; assay type: functional, Mycobacterium tuberculosis H37Rv
T5 sequence (P9WQ59 whole entry): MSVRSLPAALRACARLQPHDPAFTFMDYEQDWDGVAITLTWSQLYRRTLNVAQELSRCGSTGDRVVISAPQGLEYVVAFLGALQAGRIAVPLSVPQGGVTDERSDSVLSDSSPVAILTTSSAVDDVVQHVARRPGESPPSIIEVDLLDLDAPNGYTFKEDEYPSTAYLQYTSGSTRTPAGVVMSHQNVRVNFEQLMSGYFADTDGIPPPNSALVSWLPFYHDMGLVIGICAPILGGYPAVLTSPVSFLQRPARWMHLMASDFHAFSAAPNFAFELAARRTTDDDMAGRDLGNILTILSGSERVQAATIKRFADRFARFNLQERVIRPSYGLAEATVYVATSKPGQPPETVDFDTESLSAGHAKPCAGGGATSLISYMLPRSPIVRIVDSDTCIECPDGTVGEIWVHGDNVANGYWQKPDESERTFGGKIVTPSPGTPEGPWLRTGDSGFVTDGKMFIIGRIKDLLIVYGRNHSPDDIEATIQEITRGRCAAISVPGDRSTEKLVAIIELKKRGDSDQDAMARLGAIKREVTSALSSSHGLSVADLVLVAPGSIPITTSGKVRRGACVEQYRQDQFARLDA

Chain of NS3 (A3EZJ3 whole entry): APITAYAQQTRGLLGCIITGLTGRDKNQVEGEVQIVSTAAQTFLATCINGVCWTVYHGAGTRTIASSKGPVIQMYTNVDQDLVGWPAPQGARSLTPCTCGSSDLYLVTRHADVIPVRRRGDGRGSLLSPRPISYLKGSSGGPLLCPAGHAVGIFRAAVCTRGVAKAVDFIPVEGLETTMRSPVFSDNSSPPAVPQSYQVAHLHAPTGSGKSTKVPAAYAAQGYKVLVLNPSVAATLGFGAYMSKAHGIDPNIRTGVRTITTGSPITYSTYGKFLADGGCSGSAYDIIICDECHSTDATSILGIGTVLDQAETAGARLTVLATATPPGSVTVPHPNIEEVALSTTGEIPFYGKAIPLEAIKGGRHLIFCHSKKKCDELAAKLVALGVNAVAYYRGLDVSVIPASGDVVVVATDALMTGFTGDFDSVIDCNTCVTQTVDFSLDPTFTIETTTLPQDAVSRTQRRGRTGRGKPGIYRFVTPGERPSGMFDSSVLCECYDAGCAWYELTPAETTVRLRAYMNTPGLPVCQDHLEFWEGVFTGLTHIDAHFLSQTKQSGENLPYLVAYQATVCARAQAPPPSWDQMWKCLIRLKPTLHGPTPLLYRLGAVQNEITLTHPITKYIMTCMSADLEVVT
Chain of Luciferin 4-monooxygenase (P08659 whole entry): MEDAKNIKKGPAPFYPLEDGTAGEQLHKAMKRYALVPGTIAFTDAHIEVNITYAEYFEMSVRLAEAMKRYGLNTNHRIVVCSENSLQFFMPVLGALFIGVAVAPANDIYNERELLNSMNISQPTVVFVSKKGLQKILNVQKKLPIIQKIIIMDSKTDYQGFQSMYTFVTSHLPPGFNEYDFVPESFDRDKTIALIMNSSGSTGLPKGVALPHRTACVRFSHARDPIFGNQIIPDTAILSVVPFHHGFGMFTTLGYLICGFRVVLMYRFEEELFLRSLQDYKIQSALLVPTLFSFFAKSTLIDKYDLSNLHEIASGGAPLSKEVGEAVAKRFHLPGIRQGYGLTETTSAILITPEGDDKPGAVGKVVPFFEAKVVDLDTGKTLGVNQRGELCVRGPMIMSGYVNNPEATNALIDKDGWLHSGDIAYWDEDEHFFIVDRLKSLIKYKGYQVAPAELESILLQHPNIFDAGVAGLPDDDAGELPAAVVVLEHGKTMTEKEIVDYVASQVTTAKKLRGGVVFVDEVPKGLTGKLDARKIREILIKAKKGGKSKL
Chain of Large T antigen (P03070 whole entry): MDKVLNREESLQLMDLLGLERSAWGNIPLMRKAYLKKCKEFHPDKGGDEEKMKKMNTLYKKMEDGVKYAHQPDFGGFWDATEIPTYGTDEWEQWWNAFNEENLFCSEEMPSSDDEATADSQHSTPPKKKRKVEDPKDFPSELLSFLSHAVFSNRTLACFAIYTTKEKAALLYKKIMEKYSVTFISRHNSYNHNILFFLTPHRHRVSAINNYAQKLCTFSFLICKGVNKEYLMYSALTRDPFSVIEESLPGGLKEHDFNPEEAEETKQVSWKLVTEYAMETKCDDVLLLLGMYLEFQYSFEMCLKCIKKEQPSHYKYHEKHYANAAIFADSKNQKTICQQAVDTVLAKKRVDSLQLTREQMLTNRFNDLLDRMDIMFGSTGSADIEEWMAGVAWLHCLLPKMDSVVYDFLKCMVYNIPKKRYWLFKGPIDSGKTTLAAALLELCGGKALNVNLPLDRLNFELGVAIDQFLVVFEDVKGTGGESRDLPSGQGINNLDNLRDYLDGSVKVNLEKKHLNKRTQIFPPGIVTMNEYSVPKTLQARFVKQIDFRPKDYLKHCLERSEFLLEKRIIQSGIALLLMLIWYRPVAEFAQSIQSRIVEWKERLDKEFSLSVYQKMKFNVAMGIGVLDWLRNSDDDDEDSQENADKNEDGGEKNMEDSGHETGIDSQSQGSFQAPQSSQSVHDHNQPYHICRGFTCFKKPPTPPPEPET
Chain of Paired box protein Pax-8 (Q06710 whole entry): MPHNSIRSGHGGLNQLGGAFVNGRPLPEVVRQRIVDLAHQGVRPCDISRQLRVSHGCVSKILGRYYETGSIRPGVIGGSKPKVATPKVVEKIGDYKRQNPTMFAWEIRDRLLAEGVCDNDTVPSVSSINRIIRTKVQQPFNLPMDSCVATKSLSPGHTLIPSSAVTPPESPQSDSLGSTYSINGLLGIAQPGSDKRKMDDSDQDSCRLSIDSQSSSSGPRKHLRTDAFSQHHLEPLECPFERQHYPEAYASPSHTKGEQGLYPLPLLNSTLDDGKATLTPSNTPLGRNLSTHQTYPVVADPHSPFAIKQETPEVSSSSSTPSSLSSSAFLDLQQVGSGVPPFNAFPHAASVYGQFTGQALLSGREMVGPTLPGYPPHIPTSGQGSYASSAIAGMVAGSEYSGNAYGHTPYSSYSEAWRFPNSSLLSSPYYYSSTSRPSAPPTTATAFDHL
Chain of Bcl-2-like protein 10 (Q9HD36 whole entry): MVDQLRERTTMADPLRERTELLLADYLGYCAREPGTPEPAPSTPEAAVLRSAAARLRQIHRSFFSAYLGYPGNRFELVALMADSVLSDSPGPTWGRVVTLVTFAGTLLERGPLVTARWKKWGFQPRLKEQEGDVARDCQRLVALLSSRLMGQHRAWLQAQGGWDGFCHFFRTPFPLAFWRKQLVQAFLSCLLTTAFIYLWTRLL

## N#C/C(=C\c1ccc(O)c(O)c1)S(=O)(=O)c1ccccc1
Leucine aminopeptidase
  IC50: 7.23 µM (active)
NS3
  IC50: 4.39 µM (active)

## O=C(CSc1nnc(-c2ccc(Br)cc2)o1)Nc1cccc(C(=O)O)c1
[1]
  EC50: 3.04 µM (active)
[2]
  EC50: 0.31 µM (active)
Cells [3]
  EC50: 0.934 µM (active)
[4]
  EC50: < 0.1 µM (active)
[5]
  EC50: < 0.1 µM (active)
[6]
  EC50: 0.409 µM (active)

## CCc1cccc(OCC(=O)Nc2ccc(C(=O)O)cc2NC(=O)COc2cccc(CC)c2)c1
[7]
  EC50: 11.9 µM (active)

## COc1ccc(NC(=O)C(=O)NCC2CCCN2S(=O)(=O)c2ccc(C)cc2)cc1 (stereo unspecified)
[1]
  EC50: < 0.1 µM (active)
[2]
  EC50: 0.051 µM (active)
BJ [8]
  EC50: 0.625 µM (active)
Cells [3]
  EC50: 0.06 µM (active)
[5]
  EC50: < 0.1 µM (active)
BJ [9]
  EC50: 11.7 µM (inconclusive)
BJ [10]
  EC50: 0.611 µM (active)
[11]
  EC50: 0.484 µM (active)
[6]
  EC50: 0.047 µM (active)
[12]
  IC50: > 80 µM (inactive)
Cells [13]
  IC50: > 67.5 µM (inactive)
[14]
  IC50: > 67.5 µM (inactive)
Paired box protein Pax-8
  AC50: 0.709 µM (active)

## N#Cc1c(NC(=O)CSc2nnc[nH]2)sc2c1CCCC2
Leucine aminopeptidase
  IC50: 4.79 µM (active)
[15]
  EC50: 27.8 µM (active)
[16]
  AC50: 0.599 µM (active)

## CCCN1C2=NCCN2c2cc(C)c(C)cc21
[7]
  EC50: 5.96 µM (active)

## COc1ccc(C(c2c(NC(=O)c3ccco3)sc(C)c2C)N2CCOCC2)cc1OC (stereo unspecified)
[17]
  CC50: 46.5 µM (active)
Cells [18]
  IC50: 4.07 µM (active)

## COc1ccc(-c2noc(CCCC(=O)O)n2)cc1
[15]
  EC50: 3.3 µM (active)
HT-1080
  EC50: > 50 µM (not active)
[19]
  IC50: > 80 µM (inactive)
[20]
  AC50: 2.26 µM (active)
[21]
  AC50: 1.08 µM (active)
[22]
  AC50: 1.59 µM (active)
[23]
  AC50: 1.1 µM (active)

## Cc1c[nH]c2cccc(OCC(O)CNC(C)(C)C)c12 (stereo unspecified)
Bcl-2-like protein 10
  IC50: > 100 µM (inactive)

## O=c1c2c(O)cc(CSc3ccc(Cl)cc3)nc2[nH]n1-c1ccccc1
Large T antigen
  IC50: > 100 µM (active)
NS3
  IC50: 5.22 µM (active)
[24]
  AC50: 23.4 µM (active)

## Cc1cc(O)nc(N/N=C/c2c(C)nn(-c3ccccc3Cl)c2Cl)n1
[17]
  CC50: 21.2 µM (active)
Cells [18]
  IC50: 41.5 µM (active)
